Measurements from ChEMBL document CHEMBL6134779, “Design of Proteolytic-Resistant Antifungal Peptides by Utilizing Minimum d-Amino Acid Ratios” (J Med Chem, 2024).
In brackets after ≈: the same amount, converted by molar mass. Activity calls are given as the source filed them. No cut-off for these calls is given here.

Assays:
Candida albicans [1] = assay: Antifungal activity against Candida albicans CGMCC 2.2086 assessed as inhibition of fungal growth incubated for 48 hrs; assay type: functional
Candida tropicalis = assay: Antifungal activity against Candida tropicalis CGMCC 2.1975 assessed as inhibition of fungal growth incubated for 48 hrs; assay type: functional
Candida albicans [2] = assay: Antifungal activity against Candida albicans SP3902 assessed as inhibition of fungal growth incubated for 48 hrs; assay type: functional
Candida albicans [3] = assay: Antifungal activity against Candida albicans SP3903 assessed as inhibition of fungal growth incubated for 48 hrs; assay type: functional
Candida albicans [4] = assay: Antifungal activity against Fluconazole-resistant Candida albicans 58288 assessed as inhibition of fungal growth incubated for 48 hrs; assay type: functional
Candida albicans [5] = assay: Antifungal activity against Candida albicans SP3876 assessed as inhibition of fungal growth incubated for 48 hrs; assay type: functional
Candida albicans [6] = assay: Antifungal activity against Candida albicans SP3931 assessed as inhibition of fungal growth incubated for 48 hrs; assay type: functional
Candida albicans [7] = assay: Antifungal activity against Candida albicans 14936 assessed as inhibition of fungal growth incubated for 48 hrs; assay type: functional
Candida albicans [8] = assay: Antifungal activity against Candida albicans 17546 assessed as inhibition of fungal growth incubated for 48 hrs; assay type: functional
Candida albicans [9] = assay: Antifungal activity against Fluconazole-resistant Candida albicans 56214 assessed as inhibition of fungal growth incubated for 48 hrs; assay type: functional
Candida albicans [10] = assay: Antifungal activity against Candida albicans 56452 assessed as inhibition of fungal growth incubated for 48 hrs; assay type: functional
Candida parapsilosis = assay: Antifungal activity against Candida parapsilosis CGMCC 2.3989 assessed as inhibition of fungal growth incubated for 48 hrs; assay type: functional; settings: Lodderomyces parapsilosis
[11] = Proteolytic stability of the compound assessed as trypsin (unknown origin)-mediated drug degradation measured after 8 hrs by 16.5% tricine-SDS-PAGE analysis; assay type: ADME; settings: human
Candida albicans [12] = assay: Antifungal activity against Candida albicans CGMCC 2.2086 assessed as inhibition of fungal growth incubated for 2 hrs in presence of trypsin; assay type: functional, organism-based
Candida albicans [13] = assay: Antifungal activity against Candida albicans CGMCC 2.2086 assessed as inhibition of fungal growth incubated for 2 hrs in presence of chymotrypsin; assay type: functional, organism-based
Candida albicans [14] = assay: Antifungal activity against Candida albicans CGMCC 2.2086 assessed as inhibition of fungal growth incubated for 2 hrs in presence of protease K; assay type: functional, organism-based
[15] = Proteolytic stability of the compound assessed as chymotrypsin (unknown origin)-mediated drug degradation measured after 8 hrs by 16.5% tricine-SDS-PAGE analysis; assay type: ADME; settings: human
[16] = Proteolytic stability of the compound assessed as protease K (unknown origin)-mediated drug degradation measured after 8 hrs by 16.5% tricine-SDS-PAGE analysis; assay type: ADME; settings: human
[17] = Hemolytic activity in human red blood cells assessed as hemolysis incubated for 1 hr; assay type: toxicity, cell-based, Erythrocyte
[18] = Hemolytic activity in human red blood cells assessed as hemolysis rate at 512 uM incubated for 1 hr relative to control; assay type: toxicity, cell-based, Erythrocyte; settings: read-out: Activity
HEK293 = assay: Cytotoxicity against HEK293 cells assessed as cell death at 64 uM measured after 8 hrs by calcein-AM and propidium iodide Live/Dead dye staining assay; assay type: toxicity, cell-based; settings: human, hek293, 8 h
Candida albicans [19] = assay: Antifungal activity against Candida albicans CGMCC 2.2086 assessed as inhibition of fungal growth incubated for 48 hrs in presence of NaCl; assay type: functional
Candida albicans [20] = assay: Antifungal activity against Candida albicans CGMCC 2.2086 assessed as inhibition of fungal growth incubated for 48 hrs in presence of KCl; assay type: functional
Candida albicans [21] = assay: Antifungal activity against Candida albicans CGMCC 2.2086 assessed as inhibition of fungal growth incubated for 48 hrs in presence of NH4Cl; assay type: functional
Candida albicans [22] = assay: Antifungal activity against Candida albicans CGMCC 2.2086 assessed as inhibition of fungal growth incubated for 48 hrs in presence of MgCl2; assay type: functional
Candida albicans [23] = assay: Antifungal activity against Candida albicans CGMCC 2.2086 assessed as inhibition of fungal growth incubated for 48 hrs in presence of ZnCl2; assay type: functional
Candida albicans [24] = assay: Antifungal activity against Candida albicans CGMCC 2.2086 assessed as inhibition of fungal growth incubated for 48 hrs in presence of FeCl3; assay type: functional
Candida albicans [25] = assay: Antifungal activity against Candida albicans CGMCC 2.2086 assessed as inhibition of fungal growth incubated for 48 hrs in presence of CaCl2; assay type: functional
[26] = Stability of the compound in NaCl assessed as change in secondary structure by CD spectra analysis; assay type: physicochemical
[27] = Stability of the compound in KCl assessed as change in secondary structure by CD spectra analysis; assay type: physicochemical
[28] = Stability of the compound in NH4Cl assessed as change in secondary structure by CD spectra analysis; assay type: physicochemical
[29] = Stability of the compound in MgCl2 assessed as change in secondary structure by CD spectra analysis; assay type: physicochemical
[30] = Stability of the compound in ZnCl2 assessed as change in secondary structure by CD spectra analysis; assay type: physicochemical
[31] = Stability of the compound in FeCl3 assessed as change in secondary structure by CD spectra analysis; assay type: physicochemical
[32] = Stability of the compound in CaCl2 assessed as change in secondary structure by CD spectra analysis; assay type: physicochemical
Candida albicans [33] = assay: Antifungal activity against Candida albicans CGMCC 2.2086 assessed as inhibition of fungal growth incubated for 2 to 4 hrs in presence of 100% serum; assay type: functional, organism-based; settings: time 2-4 hrs
Candida albicans [34] = assay: Antibiofilm activity against Candida albicans CGMCC 2.2086 assessed as inhibition of biofilm formation at antifungal MIC measured after 48 hrs by crystal violet staining based assay; assay type: functional
Candida albicans [35] = assay: Induction of Candida albicans CGMCC 2.2086 cell wall permeabilization at 128 uM by NPN probe based assay relative to control; assay type: functional
Candida albicans [36] = assay: Induction of Candida albicans CGMCC 2.2086 cell wall permeabilization by NPN probe based assay; assay type: functional, organism-based; settings: dose 1-128 µM
Cell membrane [37] = assay: Induction of cytoplasmic membrane depolarization in Candida albicans CGMCC 2.2086 at 0.5 to 2X MIC measured up to 3600 secs by DISC3-5 dye based fluorescence assay; assay type: subcellular; settings: time <= 3600.0 sec
Candida albicans [38] = assay: Induction of ROS generation in Candida albicans CGMCC 2.2086 measured after 60 mins by […] dye based fluorescence assay; assay type: functional, organism-based; settings: dose 0.5-128 µM
Cell membrane [39] = assay: Disruption of Candida albicans CGMCC 2.2086 cell membrane at 1X MIC measured after 1 hr by SYTO9/propidium iodide staining based fluorescence microscopic analysis; assay type: subcellular
Candida albicans [40] = assay: Induction of morphological changes in Candida albicans CGMCC 2.2086 assessed as appearance of cell pits at 1X MIC measured after 60 mins by SEM analysis; assay type: functional, organism-based
Candida albicans [41] = assay: Induction of morphological changes in Candida albicans CGMCC 2.2086 at 1X MIC measured after 60 mins by TEM analysis; assay type: functional, organism-based

With `CC[C@H](C)[C@H](NC(=O)CN)C(=O)NCC(=O)N[C@@H](C)C(=O)N[C@H](C(=O)N[C@@H](CC(C)C)C(=O)N[C@@H](CCCCN)C(=O)N[C@H](C(=O)N[C@@H](CC(C)C)C(=O)N[C@H](C(=O)N[C@H](C(=O)NCC(=O)N[C@@H](CC(C)C)C(=O)N1CCC[C@H]1C(=O)N[C@@H](C)C(=O)N[C@@H](CC(C)C)C(=O)N[C@H](C(=O)N[C@@H](CO)C(=O)N[C@@H](Cc1c[nH]c2ccccc12)C(=O)N[C@H](C(=O)N[C@@H](CCCCN)C(=O)N[C@@H](CCCNC(=N)N)C(=O)N[C@@H](CCCCN)C(=O)N[C@@H](CCCNC(=N)N)C(=O)N[C@@H](CCC(N)=O)C(=O)N[C@@H](CCC(N)=O)C(N)=O)[C@@H](C)CC)[C@@H](C)CC)[C@@H](C)O)[C@@H](C)O)C(C)C)C(C)C` [MELITTIN] the MIC95 (Candida albicans [1]) was 4 µM (≈ 11.4 µg/mL), the MIC95 (Candida tropicalis) was 2 µM (≈ 5.69 µg/mL) and the MIC95 (Candida albicans [2]) was 4 µM (≈ 11.4 µg/mL). The MIC95 (Candida albicans [3]) was 4 µM (≈ 11.4 µg/mL), the MIC95 (Candida albicans [4]) was 4 µM (≈ 11.4 µg/mL) and the MIC95 (Candida albicans [5]) was 4 µM (≈ 11.4 µg/mL). For the same compound, the MIC95 (Candida albicans [6]) was 4 µM (≈ 11.4 µg/mL), the MIC95 (Candida albicans [7]) was 4 µM (≈ 11.4 µg/mL) and the MIC95 (Candida albicans [8]) was 4 µM (≈ 11.4 µg/mL). The MIC95 (Candida albicans [9]) was 2 µM (≈ 5.69 µg/mL), the MIC95 (Candida albicans [10]) was 4 µM (≈ 11.4 µg/mL) and the MIC95 (Candida parapsilosis) was 2 µM (≈ 5.69 µg/mL). For the same compound, the Stability [11] was “Unstable”, the Activity (Candida albicans [12]) was “inactive” and the Activity (Candida albicans [13]) was “inactive”. For the same compound, the Activity (Candida albicans [14]) was “inactive”, the Stability [15] was “Unstable” and the Stability [16] was “Unstable”.

Compound `CC(C)[C@H](N)C(=O)N[C@H](C(=O)N[C@H](CCCNC(=N)N)C(=O)N[C@@H](CCCNC(=N)N)C(=O)N[C@@H](Cc1c[nH]cn1)C(=O)N[C@H](C(=O)N[C@H](C(=O)N[C@H](C(=O)N[C@H](C(=O)N[C@H](CCCNC(=N)N)C(=O)N[C@@H](CCCNC(=N)N)C(=O)N[C@@H](Cc1c[nH]cn1)C(=O)N[C@H](C(=O)N[C@H](C(=O)N[C@H](C(=O)N[C@H](C(=O)N[C@H](CCCNC(=N)N)C(=O)N[C@@H](CCCNC(=N)N)C(=O)N[C@@H](Cc1c[nH]cn1)C(=O)N[C@H](C(=O)N[C@H](C(N)=O)C(C)C)C(C)C)C(C)C)C(C)C)C(C)C)C(C)C)C(C)C)C(C)C)C(C)C)C(C)C)C(C)C` has an MIC95 (Candida albicans [1]) of 8 µM (≈ 20.4 µg/mL), an MIC95 (Candida tropicalis) of 4 µM (≈ 10.2 µg/mL) and an MIC95 (Candida albicans [2]) of 8 µM (≈ 20.4 µg/mL). It also gave an MIC95 (Candida albicans [3]) of 4 µM (≈ 10.2 µg/mL), an MIC95 (Candida albicans [4]) of 8 µM (≈ 20.4 µg/mL) and an MIC95 (Candida albicans [5]) of 8 µM (≈ 20.4 µg/mL). The MIC95 (Candida albicans [6]) was 8 µM (≈ 20.4 µg/mL), the MIC95 (Candida albicans [7]) was 8 µM (≈ 20.4 µg/mL) and the MIC95 (Candida albicans [8]) was 4 µM (≈ 10.2 µg/mL). For the same compound, the MIC95 (Candida albicans [9]) was 8 µM (≈ 20.4 µg/mL), the MIC95 (Candida albicans [10]) was 4 µM (≈ 10.2 µg/mL) and the MIC95 (Candida parapsilosis) was 4 µM (≈ 10.2 µg/mL). For the same compound, the HC50 at 1 h [17] was > 512 µM, the hemolysis at 1 h, 512 µM [18] was 8.58% and the Activity (HEK293) was “Toxic”. It also gave an MIC95 (Candida albicans [19]) of 64 µM, an MIC95 (Candida albicans [20]) of 32 µM and an MIC95 (Candida albicans [21]) of 4 µM. It also gave an MIC95 (Candida albicans [22]) of 8 µM, an MIC95 (Candida albicans [23]) of 8 µM and an MIC95 (Candida albicans [24]) of 32 µM. The MIC95 (Candida albicans [25]) was 32 µM, the Stability [26] was “Unstable” and the Stability [27] was “Stable”. The Stability [28] was “Stable”, the Stability [29] was “Stable” and the Stability [30] was “Stable”. For the same compound, the Stability [31] was “Stable”, the Stability [32] was “Stable” and the “growth inhibition (GI)” value (Candida albicans [33]) was “Active; No Alterations In The Antimicrobial Activity Was Observed In Presence Of Serum”. The Activity (Candida albicans [12]) was “Active”, the Activity (Candida albicans [13]) was “Active” and the Activity (Candida albicans [14]) was “Active”. For the same compound, the “inhibition (INH)” value (Candida albicans [34]) was 90%, the Activity (Candida albicans [35]) was “<=100%” and the Activity (Candida albicans [36]) was “Dose-dependent-effect”. For the same compound, the Activity (Cell membrane [37]) was “Active”, the Activity (Candida albicans [38]) was “Dose-dependent-effect” and the Activity (Cell membrane [39]) was “Active”. For the same compound, the Activity (Candida albicans [40]) was “Active; Only Limited Number Of Pits Appeared” and the Activity (Candida albicans [41]) was “inactive”.
